# Like-named read-outs stand apart in the source and are kept apart here.
# Test system: IL-1β production in PMA-differentiated THP-1 cells
# Test: IL-1β production in PMA-differentiated THP-1 cells stimulated with gramicidin (hTHP-1 assay, 2% bovine serum; Bioassays 1 and 2)
# Assay type: cell-based, human
# Details: hTHP-1 assay containing 2% bovine serum, Table 12, by Example #, read-out: Average IC50 of compounds in hTHP-1 assay
# Experimental: IL-1β Production in PMA-Differentiated THP-1 Cells Stimulated with Gramicidin.
# Cell culture-THP-1 cells were purchased from the American Type Culture Collection and sub-cultured according to instructions from the supplier. Prior to experiments, cells were cultured in RPMI 1640 containing 10% heat inactivated FBS, penicillin (100 units/ml) and streptomycin (100 μg/ml), and maintained in log phase prior to experimental setup. Prior to the experiment THP-1 were treated with PMA (Phorbol 12-myristate 13-acetate) (10 μg/ml) for 24 hours. The day of the experiment the media was removed and attaching cells were treated with trypsin for 2 minutes, cells were then collected, washed with PBS (phosphate buffer saline), spin down, resuspended in 2% heat inactivated FBS with RPMI at a concentration of 1×10^6 cells/ml, and 100 ul was plated in a 96 well plate. Cells were incubated with compounds for 1 hours and then stimulated with Gramicidin (5 μM) (Enzo) for 2 hours. Cell free supernatant was collected and the production of IL-1β was evaluated by ELISA. Compounds were dissolved in dimethyl sulfoxide (DMSO) and added to the culture medium to achieve desired concentration (e.g. 100, 30, 10, 3, 1, 0.3 or 0.1 μM). A vehicle only control was run concurrently with each experiment. Final DMSO concentration was 1%.
# THP-1 cells were purchased from the American Type Culture Collection and sub-cultured according to instructions from the supplier. Prior to experiments, cells were cultured in complete RPMI 1640 (containing 10% heat inactivated FBS, penicillin (100 units/ml) and streptomycin (100 μg/ml)), and maintained in log phase prior to experimental setup. Prior to the experiment THP-1 were treated with PMA (Phorbol 12-myristate 13-acetate) (20 ng/ml) for 16-18 hours. On the day of the experiment the media was removed and adherent cells were detached with trypsin for 5 minutes. Cells were then harvested, washed with complete RPMI 1640, spun down, resuspended in RPMI 1640 (containing 2% heat inactivated FBS, penicillin (100 units/ml) and streptomycin (100 μg/ml). The cells were plated in a 384-well plate at a density of 50,000 cells/well (final assay volume 50 μl). Compounds were dissolved in dimethyl sulfoxide (DMSO) and added to the culture medium to achieve desired concentration (e.g. 100, 33, 11, 3.7, 1.2, 0.41, 0.14, 0.046, 0.015, 0.0051, 0.0017 μM). Cells were incubated with compounds for 1 hour and then stimulated with gramicidin (5 μM) (Enzo) for 2 hours. Cell free supernatant was collected and the production of IL-10 was evaluated by HTRF (cisbio). A vehicle only control was run concurrently with each experiment. Final DMSO concentration was 0.38%.
# Compounds tested with protocols 1 and 2 provided IC50 values that are within the variability of the assay.
# Tables 12 and 13 show the biological activity of compounds in hTHP-1 assay containing 2% bovine serum: <1 μM=“++++”; ≥1 and <5 μM=“+++”; ≥5 and <15 μM=“++”; ≥15 and <60 μM=“+”.
Structure (SMILES),"IC50 (Homo sapiens, THP-1) [µM]",IC50 [µM]
"CC(C)c1cc(F)cc(C(C)C)c1CC(=O)NS(=O)(=O)c1ccc(C(C)(C)O)cc1 [Example 34, 2-(4-fluoro-2,6-diisopropylphenyl)-N-(4-(2-hydroxypropan-2-yl)phenylsulfonyl)acetamide]",1 to 5,–
"CC(C)c1cc(C#N)cc(C(C)C)c1CC(=O)NS(=O)(=O)c1ccc(C(C)(C)O)c(CO)c1 [Example 95, 2-(4-cyano-2,6-diisopropylphenyl)-N-(3-(hydroxymethyl)-4-(2-hydroxypropan-2-yl)phenylsulfonyl)acetamide]",1 to 5,–
"CC(C)c1cc(F)cc(C(C)C)c1CC(=O)NS(=O)(=O)c1cc(C(C)(C)O)n(-c2ccccc2)n1 [Example 64, 2-(4-fluoro-2,6-diisopropylphenyl)-N-(5-(2-hydroxypropan-2-yl)-1-phenyl-1H-pyrazol-3-ylsulfonyl)acetamide]",1 to 5,–
"COc1c(Cl)cc(Cl)cc1CC(=O)NS(=O)(=O)c1ncc(C(C)(C)O)s1 [Example 88, 2-(3,5-dichloro-2-methoxyphenyl)-N-(5-(2-hydroxypropan-2-yl)thiazol-2-ylsulfonyl)acetamide]",15 to 60,–
"CC(C)c1cc(F)cc(C(C)C)c1CC(=O)NS(=O)(=O)c1cc(Cl)cc(C(C)(C)O)c1 [Example 27, N-(3-chloro-5-(2-hydroxypropan-2-yl)phenylsulfonyl)-2-(4-fluoro-2,6-diisopropylphenyl)acetamide]",1 to 5,–
"CC(C)c1cc(F)cc(C(C)C)c1CC(=O)NS(=O)(=O)c1ccn(C(C)C)n1 [Example 62, 2-(4-fluoro-2,6-diisopropylphenyl)-N-(1-isopropyl-1H-pyrazol-3-ylsulfonyl)acetamide]",5 to 15,–
"CC(C)c1cc(C#N)cc(C(C)C)c1CC(=O)NS(=O)(=O)c1cccc(C(C)(C)O)c1 [Example 26, 2-(4-cyano-2,6-diisopropylphenyl)-N-(3-(2-hydroxypropan-2-yl)phenylsulfonyl)acetamide]",1 to 5,–
"Cc1cc(C(C)(C)O)ccc1S(=O)(=O)NC(=O)Cc1c(C(C)C)cc(F)cc1C(C)C [Example 48, 2-(4-fluoro-2,6-diisopropylphenyl)-N-(4-(2-hydroxypropan-2-yl)-2-methylphenylsulfonyl)acetamide]",< 1,–
"CC(C)(O)c1cnc(S(=O)(=O)NC(=O)Cc2c(C3CC3)cccc2C2CC2)s1 [Example 78, 2-(2,6-dicyclopropylphenyl)-N-(5-(2-hydroxypropan-2-yl)thiazol-2-ylsulfonyl)acetamide]",5 to 15,–
"CC(C)c1cc(F)cc(C(C)C)c1CC(=O)NS(=O)(=O)c1ncc(C(C)O)s1 (stereo not drawn) [Example 92, 2-(4-fluoro-2,6-diisopropylphenyl)-N-(5-(1-hydroxyethyl)thiazol-2-ylsulfonyl)acetamide]",1 to 5,–
"CC(C)c1cnc(S(=O)(=O)NC(=O)Cc2c(C(C)C)cc(F)cc2C(C)C)s1 [Example 84, 2-(4-fluoro-2,6-diisopropylphenyl)-N-(5-isopropylthiazol-2-ylsulfonyl)acetamide]",5 to 15,–
"CC(C)c1cc(F)cc(C(C)C)c1CC(=O)NS(=O)(=O)c1ccc(C(C)(C)O)nc1 [Example 36, 2-(4-fluoro-2,6-diisopropylphenyl)-N-(6-(2-hydroxypropan-2-yl)pyridin-3-ylsulfonyl)acetamide]",1 to 5,–
"CC(C)c1cc(Cl)cc(C(C)C)c1CC(=O)NS(=O)(=O)c1ncc(C(C)(C)O)s1 [Example 70, 2-(4-chloro-2,6-diisopropylphenyl)-N-(5-(2-hydroxypropan-2-yl)thiazol-2-ylsulfonyl)acetamide]",< 1,–
"CC(C)c1cccc(C(C)C)c1CC(=O)NS(=O)(=O)c1cc(C(C)(C)O)cs1 [Example 8, 2-(2,6-diisopropylphenyl)-N-(4-(2-hydroxypropan-2-yl)thiophen-2-ylsulfonyl)acetamide]",< 1,–
"CC(C)c1cc(F)cc(C(C)C)c1CC(=O)NS(=O)(=O)c1cnc(C(C)(C)O)s1 [Example 75, 2-(4-fluoro-2,6-diisopropylphenyl)-N-(2-(2-hydroxypropan-2-yl)thiazol-5-ylsulfonyl)acetamide]",< 1,–
"CC(C)c1cccc(C(C)C)c1CC(=O)NS(=O)(=O)c1cc(C(C)(C)O)cc(C(C)(C)O)c1 [Example 24, N-(3,5-bis(2-hydroxypropan-2-yl)phenylsulfonyl)-2-(2,6-diisopropylphenyl)acetamide]",15 to 60,–
"CC(C)c1c(F)c(Cl)c(F)c(C(C)C)c1CC(=O)NS(=O)(=O)c1cc(C(C)(C)O)cs1 [Example 12, 2-(4-chloro-3,5-difluoro-2,6-diisopropylphenyl)-N-(4-(2-hydroxypropan-2-yl)thiophen-2-ylsulfonyl)acetamide]",< 1,–
CC(=O)c1ccc(F)c(S(=O)(=O)NC(=O)Cc2c(C(C)C)cc(F)cc2C(C)C)c1 [Example 55],–,1 to 5
"CC(C)c1cc(F)cc(C(C)C)c1CC(=O)NS(=O)(=O)c1ccc(C(C)(C)O)c(CO)c1 [Example 94, 2-(4-fluoro-2,6-diisopropylphenyl)-N-(3-(hydroxymethyl)-4-(2-hydroxypropan-2-yl)phenylsulfonyl)acetamide]",1 to 5,–
"CC(C)c1cc(F)cc(C(C)C)c1CC(=O)NS(=O)(=O)c1ccc(C(C)(C)O)cc1F [Example 54, 2-(4-fluoro-2,6-diisopropylphenyl)-N-(2-fluoro-4-(2-hydroxypropan-2-yl)phenylsulfonyl)acetamide]",< 1,–
"CC(C)c1cc(F)cc(C(C)C)c1CC(=O)NS(=O)(=O)c1cc(C2(C)OCCO2)ccc1F [Example 56, 2-(4-fluoro-2,6-diisopropylphenyl)-N-(2-fluoro-5-(2-methyl-1,3-dioxolan-2-yl)phenylsulfonyl)acetamide]",< 1,–
"CCc1cc(F)cc(CC)c1CC(=O)NS(=O)(=O)c1ncc(C(C)(C)O)s1 [Example 86, 2-(2,6-diethyl-4-fluorophenyl)-N-(5-(2-hydroxypropan-2-yl)thiazol-2-ylsulfonyl)acetamide]",5 to 15,–
"CC(C)c1cc(Cl)cc(C(F)(F)F)c1CC(=O)NS(=O)(=O)c1ncc(C(C)(C)O)s1 [Example 79, 2-(4-chloro-2-isopropyl-6-(trifluoromethyl)phenyl)-N-(5-(2-hydroxypropan-2-yl)thiazol-2-ylsulfonyl)acetamide]",15 to 60,–
"CC(C)c1cc(F)cc(C(C)C)c1CC(=O)NS(=O)(=O)c1ncc(CO)s1 [Example 91, 2-(4-Fluoro-2,6-diisopropylphenyl)-N-(5-(hydroxymethyl)thiazol-2-ylsulfonyl)acetamide]",15 to 60,–
"CC(C)c1cc(Cl)cc(C(C)C)c1CC(=O)NS(=O)(=O)c1ccn(C(C)C)n1 [Example 61, 2-(4-chloro-2,6-diisopropylphenyl)-N-(1-isopropyl-1H-pyrazol-3-ylsulfonyl)acetamide]",5 to 15,–
"CC(C)c1cc(F)cc(C(C)C)c1CC(=O)NS(=O)(=O)c1cc(C(C)(C)O)cs1 [Example 9, 2-(4-fluoro-2,6-diisopropylphenyl)-N-(4-(2-hydroxypropan-2-yl)thiophen-2-ylsulfonyl)acetamide]",< 1,–
"CC(C)c1cc(F)cc(C(C)C)c1CC(=O)NS(=O)(=O)c1ncc(C(C)(C)CO)s1 [Example 4, 2-(4-Fluoro-2,6-diisopropylphenyl)-N-(5-(1-hydroxy-2-methylpropan-2-yl)thiazol-2-ylsulfonyl)acetamide]",5 to 15,–
"CC(C)c1cc(C#N)cc(C(C)C)c1CC(=O)NS(=O)(=O)c1ccc(C(C)(C)O)nc1 [Example 37, 2-(4-cyano-2,6-diisopropylphenyl)-N-(6-(2-hydroxypropan-2-yl)pyridin-3-ylsulfonyl)acetamide]",5 to 15,–
"CC(C)c1cc(F)cc(C(C)C)c1CC(=O)NS(=O)(=O)c1nc(C(C)(C)O)cs1 [Example 81, 2-(4-fluoro-2,6-diisopropylphenyl)-N-(4-(2-hydroxypropan-2-yl)thiazol-2-ylsulfonyl)acetamide]",15 to 60,–
"CC(C)c1cccc(C(C)C)c1CC(=O)NS(=O)(=O)c1cc(C(C)(C)O)n(C)n1 [Example 66, 2-(2,6-diisopropylphenyl)-N-(5-(2-hydroxypropan-2-yl)-1-methyl-1H-pyrazol-3-ylsulfonyl)acetamide]",15 to 60,–

# From patent US11447460B2, “Compounds and compositions for treating conditions associated with NLRP activity” (Novartis AG, priority 2016, dated 2022)
